Laboratory results from US20220016215A1, “GIP RECEPTOR AGONIST PEPTIDE COMPOUNDS AND USES THEREOF” (TAKEDA PHAARMACEUTICAL COMPANY LIMITED, priority 2018, published 2022).
Marks after values point to notes of the source that are not given here. Non-standard residues stand in square brackets, D forms with d. Groups on a side chain read outwards from the residue. No end group written: not given here. *: point of attachment. C15 diacid = O=C(O)CCCCCCCCCCCCCC(=O)*; Palmitoyl = CCCCCCCCCCCCCCCC(=O)*; Aib = CC(C)(N)C(=O)O

Experiments:
[1] = system: morphine (0.6 mg/kg, s.c.)-induced emesis in ferrets; experiment: Morphine-induced acute emetic model in male ferrets; assay type: in vivo, ferret; conditions: for Emesis: Duration / Emesis: Frequency / Emesis: No. of animals (responder/used) / Fidget: Duration / Fidget: Frequency / Fidget: No. of animals (responder/used) / Licking: Duration / Licking: Frequency / Licking: No. of animals (responder/used) / Retching: Duration / Retching: Frequency / Retching: No. of animals (responder/used) / Vomiting: Duration / Vomiting: Frequency / Vomiting: No. of animals (responder/used) / Emesis: Latency / Fidget: Latency / Licking: Latency / Retching: Latency / Vomiting: Latency: morphine 0.6 mg/kg s.c. 0.5 h after drug, 106-[…] s.c. (30 nmol/kg); for Emesis: Latency / Fidget: Latency / Licking: Latency / Retching: Latency / Vomiting: Latency: non-responders counted as 30 min; for Attenuation of morphine-induced emesis (in words) / Comment: Anti-Emetic Activity (inhibition) on morphine-induced emesis: male ferrets; for Attenuation of morphine-induced emesis (in words): 30 nmol/kg s.c. 30 minutes before morphine 0.6 mg/kg s.c.; for Comment: Anti-Emetic Activity (inhibition) on morphine-induced emesis: summary of the morphine experiments
Method: Example 6—In-Vivo Effect of GIP Receptor Agonist Peptides on Emesis in Morphine Induced Emesis Model in Live Male Ferrets
Effect of subcutaneously administered GIP receptor agonist peptide in morphine-induced acute emetic model.
To evaluate the antiemetic effect, the GIP receptor agonist peptides other than natural human GIP were subcutaneously administered into male ferrets 30 minutes before morphine administration. […]. Up to 60 minutes after morphine administration, the condition of the ferrets was monitored to record the frequencies and time points of abdominal contraction motions, vomiting behaviors, licking with the tongue, and fidgety behavior occurring
Effects of Subcutaneously Administered GIP Receptor Agonist Peptides in Morphine-Induced Acute Emetic Model
30 nmol/kg of Compounds 3 and 5 were dissolved with a vehicle (0.09 w/v % tween 80/10% DMSO/saline), respectively, to prepare test solutions. […] of the test solutions and the vehicle were subcutaneously administered to ferrets (4 in each group), respectively. At the time of each of 4 hours, after administration, 0.6 mg/kg of morphine was subcutaneously administered. […] See results in Tables 6, 7 and 8.
(§1) 10 nmol/kg of each compound dissolved with a vehicle (0.09 w/v % tween 80/10% DMSO/saline) respectively, to prepare test solutions. […] of the test solutions and the vehicle were subcutaneously administered to ferrets (4 in each group), respectively. At the time of each of 4 hours, or 120 hours after administration, 0.6 mg/kg of morphine was subcutaneously administered. Up to 360 minutes after morphine administration, the condition of the ferrets was monitored to record the frequencies and time points of abdominal contraction motions, vomiting behaviors, licking with the tongue, and fidgety behavior occurring.
as §1, with “30 nmol/kg” for “10 nmol/kg”, “80/10% DMSO/saline),respectively,” for “80/10% DMSO/saline) respectively,”

human GLP-1R = human GLP-1R (human, UniProt P43220 24-463); experiment: cell-based or functional assay
human GIPR = molecular target: T1, human GIPR (human, UniProt P48546 22-466); experiment: cell-based or functional assay
T1 sequence (looked up): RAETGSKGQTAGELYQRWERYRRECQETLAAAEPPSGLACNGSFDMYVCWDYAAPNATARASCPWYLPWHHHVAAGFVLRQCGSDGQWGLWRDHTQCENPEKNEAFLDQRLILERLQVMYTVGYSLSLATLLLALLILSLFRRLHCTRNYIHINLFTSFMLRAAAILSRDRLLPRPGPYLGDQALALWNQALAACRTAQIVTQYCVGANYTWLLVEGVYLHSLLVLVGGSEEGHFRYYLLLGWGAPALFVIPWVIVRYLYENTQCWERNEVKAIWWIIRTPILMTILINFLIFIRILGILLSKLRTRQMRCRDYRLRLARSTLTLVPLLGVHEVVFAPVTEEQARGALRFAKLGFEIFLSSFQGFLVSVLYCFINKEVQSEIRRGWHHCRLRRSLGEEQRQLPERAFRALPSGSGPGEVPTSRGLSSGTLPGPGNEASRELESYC

Ac-(D-Tyr)AEGTFISDYSIAMDAIHQQDFVNWLLAQLys-(palmitoyl acyl fatty acid)-NH2 (Ac-[dY]AEGTFISDYSIAMDAIHQQDFVNWLLAQK(Palmitoyl)-NH2; SMILES CCCCCCCCCCCCCCCC(=O)NCCCC[C@H](NC(=O)[C@H](CCC(N)=O)NC(=O)[C@H](C)NC(=O)[C@H](CC(C)C)NC(=O)[C@H](CC(C)C)NC(=O)[C@H](Cc1c[nH]c2ccccc12)NC(=O)[C@H](CC(N)=O)NC(=O)[C@@H](NC(=O)[C@H](Cc1ccccc1)NC(=O)[C@H](CC(=O)O)NC(=O)[C@H](CCC(N)=O)NC(=O)[C@H](CCC(N)=O)NC(=O)[C@H](Cc1c[nH]cn1)NC(=O)[C@@H](NC(=O)[C@H](C)NC(=O)[C@H](CC(=O)O)NC(=O)[C@H](CCSC)NC(=O)[C@H](C)NC(=O)[C@@H](NC(=O)[C@H](CO)NC(=O)[C@H](Cc1ccc(O)cc1)NC(=O)[C@H](CC(=O)O)NC(=O)[C@H](CO)NC(=O)[C@@H](NC(=O)[C@H](Cc1ccccc1)NC(=O)[C@@H](NC(=O)CNC(=O)[C@H](CCC(=O)O)NC(=O)[C@H](C)NC(=O)[C@@H](Cc1ccc(O)cc1)NC(C)=O)[C@@H](C)O)[C@@H](C)CC)[C@@H](C)CC)[C@@H](C)CC)C(C)C)C(N)=O) [Compound 7]
Ferrets in which the vomiting symptom was observed (in words) ([1]; ferrets, morphine administered 4 hours after administration): all of the 4 ferrets

CC[C@H](C)[C@H](NC(=O)[C@H](CO)NC(=O)[C@H](Cc1ccc(O)cc1)NC(=O)[C@H](CC(=O)O)NC(=O)[C@H](CO)NC(=O)[C@@H](NC(=O)[C@H](Cc1ccccc1)NC(=O)[C@@H](NC(=O)CNC(=O)[C@H](CCC(=O)O)NC(=O)[C@@H](C)NC(=O)[C@@H](N)Cc1ccc(O)cc1)[C@@H](C)O)[C@@H](C)CC)C(=O)N[C@@H](C)C(=O)N[C@@H](CCSC)C(=O)N[C@@H](CC(=O)O)C(=O)N[C@@H](CCCCN)C(=O)N[C@H](C(=O)N[C@@H](Cc1c[nH]cn1)C(=O)N[C@@H](CCC(N)=O)C(=O)N[C@@H](CCC(N)=O)C(=O)N[C@@H](CC(=O)O)C(=O)N[C@@H](Cc1ccccc1)C(=O)N[C@H](C(=O)N[C@@H](CC(N)=O)C(=O)N[C@@H](Cc1c[nH]c2ccccc12)C(=O)N[C@@H](CC(C)C)C(=O)N[C@@H](CC(C)C)C(=O)N[C@@H](C)C(=O)N[C@@H](CCC(N)=O)C(=O)N[C@@H](CCCCN)C(=O)N1CCC[C@H]1C(=O)N[C@@H](CO)C(=O)N[C@@H](CO)C(=O)NCC(=O)N[C@@H](C)C(=O)N1CCC[C@H]1C(=O)N1CCC[C@H]1C(=O)N1CCC[C@H]1C(=O)N[C@@H](CO)C(N)=O)C(C)C)[C@@H](C)CC [Compound 11]
Emesis: Duration ([1]; ferrets): 0.0 ± 0.0 min | Emesis: Frequency ([1]; ferrets): 0.0 ± 0.0 | Emesis: No. of animals (responder/used) ([1]; ferrets): 0/4 # | Fidget: Duration ([1]; ferrets): 0.0 ± 0.0 min | Fidget: Frequency ([1]; ferrets): 0.0 ± 0.0 | Fidget: No. of animals (responder/used) ([1]; ferrets): 0/4 | Licking: Duration ([1]; ferrets): 0.0 ± 0.0 min | Licking: Frequency ([1]; ferrets): 0.0 ± 0.0 | Licking: No. of animals (responder/used) ([1]; ferrets): 0/4 # | Retching: Duration ([1]; ferrets): 0.0 ± 0.0 min | Retching: Frequency ([1]; ferrets): 0.0 ± 0.0 | Retching: No. of animals (responder/used) ([1]; ferrets): 0/4 # | Vomiting: Duration ([1]; ferrets): 0.0 ± 0.0 min | Vomiting: Frequency ([1]; ferrets): 0.0 ± 0.0 | Vomiting: No. of animals (responder/used) ([1]; ferrets): 0/4 | Emesis: Latency ([1]; ferrets): 30.0 ± 0.0 min | Fidget: Latency ([1]; ferrets): 30.0 ± 0.0 min | Licking: Latency ([1]; ferrets): 30.0 ± 0.0 min | Retching: Latency ([1]; ferrets): 30.0 ± 0.0 min | Vomiting: Latency ([1]; ferrets): 30.0 ± 0.0 min | Attenuation of morphine-induced emesis (in words) [1]: completely attenuated | Comment: Anti-Emetic Activity (inhibition) on morphine-induced emesis [1]: 100% inhibition

CC[C@H](C)[C@H](NC(=O)[C@H](CO)NC(=O)[C@H](Cc1ccc(O)cc1)NC(=O)[C@H](CC(=O)O)NC(=O)[C@H](CO)NC(=O)[C@@H](NC(=O)[C@H](Cc1ccccc1)NC(=O)[C@@H](NC(=O)CNC(=O)[C@H](CCC(=O)O)NC(=O)[C@@H](C)NC(=O)[C@@H](N)Cc1ccc(O)cc1)[C@@H](C)O)[C@@H](C)CC)C(=O)N[C@@H](C)C(=O)N[C@@H](CCSC)C(=O)N[C@@H](CC(=O)O)C(=O)N[C@@H](CCCCN)C(=O)N[C@H](C(=O)N[C@@H](Cc1c[nH]cn1)C(=O)N[C@@H](CCC(N)=O)C(=O)N[C@@H](CCC(N)=O)C(=O)N[C@@H](CC(=O)O)C(=O)N[C@@H](Cc1ccccc1)C(=O)N[C@H](C(=O)N[C@@H](CC(N)=O)C(=O)N[C@@H](Cc1c[nH]c2ccccc12)C(=O)N[C@@H](CC(C)C)C(=O)N[C@@H](CC(C)C)C(=O)N[C@@H](C)C(=O)N[C@@H](CCC(N)=O)C(=O)N[C@@H](CCCCN)C(=O)O)C(C)C)[C@@H](C)CC [Compound 4]
Emesis: Duration ([1]; ferrets): 0.0 ± 0.0 min | Emesis: Frequency ([1]; ferrets): 0.0 ± 0.0 | Emesis: No. of animals (responder/used) ([1]; ferrets): 0/4 # | Fidget: Duration ([1]; ferrets): 0.0 ± 0.0 min | Fidget: Frequency ([1]; ferrets): 0.0 ± 0.0 | Fidget: No. of animals (responder/used) ([1]; ferrets): 0/4 | Licking: Duration ([1]; ferrets): 0.0 ± 0.0 min | Licking: Frequency ([1]; ferrets): 0.0 ± 0.0 | Licking: No. of animals (responder/used) ([1]; ferrets): 0/4 # | Retching: Duration ([1]; ferrets): 0.0 ± 0.0 min | Retching: Frequency ([1]; ferrets): 0.0 ± 0.0 | Retching: No. of animals (responder/used) ([1]; ferrets): 0/4 # | Vomiting: Duration ([1]; ferrets): 0.0 ± 0.0 min | Vomiting: Frequency ([1]; ferrets): 0.0 ± 0.0 | Vomiting: No. of animals (responder/used) ([1]; ferrets): 0/4 | Emesis: Latency ([1]; ferrets): 30.0 ± 0.0 min | Fidget: Latency ([1]; ferrets): 30.0 ± 0.0 min | Licking: Latency ([1]; ferrets): 30.0 ± 0.0 min | Retching: Latency ([1]; ferrets): 30.0 ± 0.0 min | Vomiting: Latency ([1]; ferrets): 30.0 ± 0.0 min | Attenuation of morphine-induced emesis (in words) [1]: completely attenuated | Comment: Anti-Emetic Activity (inhibition) on morphine-induced emesis [1]: 100% inhibition

B1: Compound No. 2 (peptide)
peptide: Y[dA]EGTFISDYSIAMDKIHQQDFVNWLLAQKGKKNDWK(Palmitoyl)HNIIQ-NH2
GLP1R EC50 nM (B) (human GLP-1R): 5 nM | GLP1R pEC50 (human GLP-1R): 8.3

B2: Compound No. 24 (peptide)
peptide: Y[Aib]EGTFISDYSIALDKIHQQK([ethylene glycol-ethylene glycol-C15 diacid])FVNWLLAQRG-OH
GIPR EC50 nM (A) (human GIPR): < 0.001 nM

B3: Compound No. 4 (peptide)
peptide: Y[dA]EGTFISDYSIAMDKIHQQDFVNWLLAQK-OH
GLP1R EC50 nM (B) (human GLP-1R): 355 nM | GLP1R pEC50 (human GLP-1R): 6.5

B4: Compound No. 28 (peptide)
peptide: Y[Aib]EGTFISDYSIALDKIHQQK([ethylene glycol-ethylene glycol-C15 diacid])FVNWLLAQR-NH2
GIPR EC50 nM (A) (human GIPR): < 0.001 nM

B5: Compound No. 31 (peptide)
peptide: Y[Aib]EGTFISDYSIALDKIHQQDFVNWLLAQK([ethylene glycol-ethylene glycol-C15 diacid])G-OH
GIPR EC50 nM (A) (human GIPR): 0.002 nM

B6: Compound No. 19 (peptide)
peptide: YXEGTFISDYSIAMDKIHQQDFVNWLLAQKGKKNDWKHNITQK
modifications: Aib at 2; Lys-(gamma-glutamic acid)3-palmitoyl at 43; C-terminal -OH
GLP1R pEC50 (human GLP-1R): 8.26

B7: Compound No. 3 (peptide)
peptide: YAEGTFISDYSIAMDKIHQQDFVNWLLAQKGKKNDWKHNIIQ
modifications: Lys-(palmitoyl acyl fatty acid acyl) at 16; C-terminal -NH2
GLP1R EC50 nM (B) (human GLP-1R): 148 nM | GLP1R pEC50 (human GLP-1R): 6.8 | GIPR EC50 nM (A) (human GIPR): 0.331 nM | GIPR pEC50 (human GIPR): 9.5

B8: Compound No. 1 (peptide)
peptide: Ac-YAEGTFISDYSIAMDKIHQQDFVNWLLAQKGKKNDWKHNIIQ-OH
GLP1R EC50 nM (B) (human GLP-1R): 302 nM | GLP1R pEC50 (human GLP-1R): 6.5 | GIPR EC50 nM (A) (human GIPR): 0.01 nM | GIPR pEC50 (human GIPR): 11

B9: Compound No. 25 (peptide)
peptide: Y[Aib]EGTFISDYSIALDKIK([ethylene glycol-ethylene glycol-C15 diacid])QQDFVNWLLAQRG-OH
GLP1R EC50 nM (B) (human GLP-1R): > 1000 nM | GLP1R pEC50 (human GLP-1R): < 8 | GIPR EC50 nM (A) (human GIPR): < 0.001 nM
